Consider nine molecules from patent US6124352A (priority 1994, dated 2000).

Data set [1] relates to mice. As to the kind of experiment: Acute intravenous toxicity (LD50). The class given is in vivo. As to conditions: one intravenous dose, observed for 14 days. The procedure:
(§1) The acute intravenous toxicity of 3,5-dibromo-2,6-dinitrobenzoic acid in mice is assessed by determining the mean lethal dose (LD50) using a well-known method. Mice are fed a standard laboratory diet for 8-10 weeks. Five animals of each sex are administered one intravenous dose of 3,5-dibromo-[…] acid. The animals are observed for 14 days, and the number of deaths noted.

Data set [2] has as its system Candida albicans. As to the kind of experiment: Relative in vitro efficacy (growth inhibition of Candida albicans on agar replicate plates). The conditions noted are these: 100-150 cells of Candida albicans plated on replicate agar plates containing 15 μg of compound. It counts as cell-based. How it is done: These relative efficacy numbers were obtained by plating 100-150 cells of Candida albicans on replicate agar plates containing 15 μg of the named compound and by determining the relative growth inhibition of each compound.

Data set [3] has as its system Candida albicans. The data set is described as follows: In Vitro fungicidal test (number of colonies/plate). The conditions noted are these: for Number of Colonies/Plate, Plate No. 1 / Number of Colonies/Plate, Plate No. 2 / Number of Colonies/Plate, Plate No. 3 / Number of Colonies/Plate, Plate No. 4 / Number of Colonies/Plate, Plate No. 5 / Number of Colonies/Plate, Plate No. 6 / Number of Colonies/Plate, Plate No. 7 / Number of Colonies/Plate, Plate No. 8 / Number of Colonies/Plate, Plate No. 9: drug final concentration 0.1 mg/ml, 80 min at 30° C., plates 48 hours; for Number of Colonies/Plate, Plate No. 1: plate 1; for Number of Colonies/Plate, Plate No. 2: plate 2; for Number of Colonies/Plate, Plate No. 3: plate 3; for Number of Colonies/Plate, Plate No. 4: plate 4; for Number of Colonies/Plate, Plate No. 5: plate 5; for Number of Colonies/Plate, Plate No. 6: plate 6; for Number of Colonies/Plate, Plate No. 7: plate 7; for Number of Colonies/Plate, Plate No. 8: plate 8; for Number of Colonies/Plate, Plate No. 9: plate 9.
Procedure: The 10% wlw malt extract, 2% agar solution used for plating in this test was prepared by mixing 100 g malt extract, 20 g agar, and a pellet of sodium hydroxide (about 0.1 g) in 1 liter of distilled, deionized water (DDW). This solution was sterilized by autoclaving, and then poured into plates.
The yeast-malt (YM) broth was composed of 3 g yeast extract, 3 g malt extract, 5 g peptone, and 10 g glucose in 1 liter DDW. The solution was brought to pH 7.2 with inorganics (e.g., hydrochloric acid or sodium hydroxide), then sterilized by autoclaving.
Stock solutions of the drugs to be tested were made in a mixture of dimethylformamide (DMF) and 0.05 M phosphate buffer at pH 7.2, combined in a 4:6 ratio of DME to buffer. Test solutions of 1 mg/ml solutions were prepared.
Two control solutions were prepared. One was the phosphate buffer as described above, the other was a mixture of DMF and the buffer in a 4:6 ratio as described above.
All drug and control solutions were sterilized by filtration through a 0.2 g filter.

Data set [4] deals with Candida albicans. The data set is described as follows: Serial Dilution Assay, Candida albicans. It counts as cell-based. As to conditions: 24 hours at 30°, OD 600 nm. How it is done:
(§2) Serial dilution assays of 3,5-dibromo-2,6-dinitrobenzoic acid and nystatin were performed on Candida albicans, Trichophyton or Asperigillus. 9 ml (1×10^4 cells) of each diluted yeast suspension was added to 1 ml of various serial dilutions of the drug to be tested in 15 ml centrifuge tubes. The final drug concentrations ranged from 0.1 to 0.0001 mg/ml. Two control tubes were also prepared using DDW instead of a drug solution. The tubes were capped and incubated for 24 hours at 30° with shaking at 200 rpm. The fungal growth was assessed by measuring optical density at 600 nm using a nephelometer.

The test system of data set [5] is Trichophyton. As to the kind of experiment: Serial Dilution Assay, Trichophyton. The class given is cell-based. As to conditions: 24 hours at 30°, OD 600 nm. How it is done:
as §2

In data set [6] the test system is Asperigillus. The data set is described as follows: Serial Dilution Assay, Aspergillus. The class given is cell-based. The procedure: as §2
Data set [7] in a line: Acute intravenous toxicity (LD50). It counts as in vivo. As to conditions: mouse, in vivo; mice, one intravenous dose, observed for 14 days. How it is done:
as §1

For data set [8], the system named is wide range of fungi. The data set is described as follows: Minimum inhibitory concentration, second independent laboratory (standard agar dilution method), fungi. As to conditions: Isosensitest agar. It counts as cell-based. The procedure:
(§3) The second laboratory compared the minimum inhibitory concentrations (μg/ml) of 3,5-dichloro-2,6-dinitrobenzoic acid and Amphotericin B, an antifungal agent. The strains were plated, in the standard agar dilution method, on Isosensitest agar containing a single antifungal agent. […] As such, when Amphotericin B is tested in agar, its activity appears higher than it would in vivo.

Data set [9] has as its system C. albicans C316. As to the kind of experiment: Stability and activity against C. albicans C316 in various broth media. The class given is cell-based. As to conditions: even in the presence of 50% mouse serum. How it is done:
(§4) In comparison, the IC50 of pentamidine, the agent now widely used to counter P. carinii fungus infections, was 2 μg/ml.

Data set [10] concerns bacteria. As to the kind of experiment: Activity against bacteria, second independent laboratory (standard agar dilution method). The class given is cell-based. The conditions noted are these: Isosensitest agar. How it is done:
as §3

Data set [11] deals with nine fungal strains (Candida spp., Cryptococcus neoformans, Aspergillus fumigatus). The data set is described as follows: Minimum inhibitory concentration, first independent laboratory (broth). It counts as cell-based. The conditions noted are these: HR/Mops broth and Sabouraud dextrose broth. How it is done:
Additional in vitro evaluation of the antifungal activity of the compounds was performed by two independent testing laboratories. One laboratory found the minimum inhibitory concentration (μg/ml), in fungal strains, of 3,5-dichloro-2,6-dinitrobenzoic acid to range from 1.56 to 6.3 when nine fungal strains (Candida spp., Cryptococcus neoformans, Aspergillus fumigatus) were tested in HR/Mops broth and Sabouraud dextrose broth.

The nature of data set [12]: Water solubility. The class given is physicochemical. As to conditions: in words.
Data set [13] concerns Pneumocystis carinii. The data set is described as follows: Pneumocystis carinii short term culture, viability by incorporation of [3H] para-aminobenzoic acid. It counts as cell-based. The conditions noted are these: fungus removed from rat lungs, read-out: IC50 against Pneumocystis carinii. How it is done: as §4
In data set [14] the test system is mice. As to conditions: mouse, in vivo; cited from earlier work.
Where [15] appears, read: read-out: final concentration at which fungal growth was completely inhibited.

In brackets after ≈: the same amount, converted by molar mass.

Turning to 2,4-dibromo-3,5-dinitrobenzoic acid, the LD50 in data set [1] was 240 mg/kg.

Consider `O=C(O)c1cc([N+](=O)[O-])c(Cl)c([N+](=O)[O-])c1Cl` [2,4-dicholoro-3,5-dinitro benzoic acid], for which the “Relative In Vitro Efficacy” value in data set [2] turned out to be 10.

Take `C[C@@H]1[C@H](O)[C@@H](C)/C=C/C=C/C=C/C=C/C=C/C=C/C=C/[C@H](O[C@@H]2O[C@H](C)[C@@H](O)[C@H](N)[C@@H]2O)C[C@@H]2O[C@](O)(C[C@@H](O)C[C@@H](O)[C@H](O)CC[C@@H](O)C[C@@H](O)CC(=O)O[C@H]1C)C[C@H](O)[C@H]2C(=O)O` [Amphotericin B, amphotericin B]: in data set [3], the “Number of Colonies/Plate, Plate No. 1” value is reported as 50; the “Number of Colonies/Plate, Plate No. 2” value was 15; the “Number of Colonies/Plate, Plate No. 3” value was 9; the “Number of Colonies/Plate, Plate No. 4” value is listed as 56. In data set [3], the “Number of Colonies/Plate, Plate No. 5” value is listed as 51; the “Number of Colonies/Plate, Plate No. 6” value came out at 48; the “Number of Colonies/Plate, Plate No. 7” value came out at 55; the “Number of Colonies/Plate, Plate No. 8” value came out at 65. In data set [3], the “Number of Colonies/Plate, Plate No. 9” value is given as 64.

For `O=C(O)c1c([N+](=O)[O-])c(Br)cc(Br)c1[N+](=O)[O-]` [Example 1, 3,5-dibromo-2,6-dinitrobenzoic acid], the MIC came out at 1.5 µg/mL (≈ 4.06 µM) in data set [4] (setting [15]); 1.5 µg/mL (≈ 4.06 µM) in [5] (setting [15]); 1.5 µg/mL (≈ 4.06 µM) in data set [6] (24 h, read-out: final concentration at which fungal growth was completely inhibited). The “Relative In Vitro Efficacy” value in data set [2] came to 100. The molecule also returned an LD50 at 336 h in data set [7] of about 240 mg/kg.

For the molecule `O=C(O)c1c([N+](=O)[O-])c(Cl)cc(Cl)c1[N+](=O)[O-]` [Example 2, 3,5-dichloro-2,6-dinitrobenzoic acid], the “fungal inhibition compared with Amphotericin B” value in data set [8] (agar-plate conditions optimized for Amphotericin B) is on record as “less fungal inhibition than Amphotericin B”. Moreover, the MIC in data set [8] (wide range of fungi) is 4 to 31 µg/mL (≈ 14.2 to 110 µM). Besides, in data set [9], the “stability and activity against C. albicans C316” value was “remained stable and active”. The “Relative In Vitro Efficacy” value in [2] stood at 100. In addition, the activity against bacteria result in data set [10] was “not against bacteria”. In addition, the MIC in data set [11] fell in the range of 1.56 to 6.3 µg/mL (≈ 5.55 to 22.4 µM). Also, in data set [3], the “Number of Colonies/Plate, Plate No. 1” value is on record as 22; the “Number of Colonies/Plate, Plate No. 2” value was 4; the “Number of Colonies/Plate, Plate No. 3” value worked out at 3; the “Number of Colonies/Plate, Plate No. 4” value is 31. In data set [3], the “Number of Colonies/Plate, Plate No. 5” value is 28; the “Number of Colonies/Plate, Plate No. 6” value came to 33; the “Number of Colonies/Plate, Plate No. 7” value is on record as 20; the “Number of Colonies/Plate, Plate No. 8” value was found to be 19. In addition, the “Number of Colonies/Plate, Plate No. 9” value in [3] turned out to be 25. In data set [3] (from Table 2), the “fungicidal activity relative to amphotericin B” value is reported as “about twice as effective as amphotericin B” and the “fungicidal activity relative to ketoconazole” value is on record as “about four times as effective as ketoconazole”. Also, the water solubility result in data set [12] is listed as “water soluble”. In addition, the IC50 in [13] was determined as 17 µg/mL (≈ 60.5 µM).

Turning to `COC(=O)c1c([N+](=O)[O-])c(Br)cc(Br)c1[N+](=O)[O-]` [Example 4, methyl 3,5-dibromo-2,6-dinitrobenzoate], in data set [2], the “Relative In Vitro Efficacy” value is on record as 4.

For the molecule `CC(=O)N1CCN(c2ccc(OCC3COC(Cn4ccnc4)(c4ccc(Cl)cc4Cl)O3)cc2)CC1` (centres unmarked) [Ketoconazole, ketoconazole], in [3], the “Number of Colonies/Plate, Plate No. 1” value stood at 82; the “Number of Colonies/Plate, Plate No. 2” value came to 39; the “Number of Colonies/Plate, Plate No. 3” value was 37; the “Number of Colonies/Plate, Plate No. 4” value was determined as 94. For the same molecule, in data set [3], the “Number of Colonies/Plate, Plate No. 5” value is 103; the “Number of Colonies/Plate, Plate No. 6” value worked out at 78; the “Number of Colonies/Plate, Plate No. 7” value amounted to 120; the “Number of Colonies/Plate, Plate No. 8” value came to 122. Besides, the “Number of Colonies/Plate, Plate No. 9” value in [3] is 95.

Take `C[C@@H]1[C@H](O)[C@@H](C)/C=C/C=C/CC/C=C/C=C/C=C/C=C/C(O[C@H]2O[C@H](C)[C@@H](O)[C@H](N)[C@@H]2O)CC2O[C@](O)(CC(O)C(O)CCC(O)CC(O)CC(O)CC(=O)O[C@H]1C)CC(O)C2C(=O)O` (some centres unmarked) [nystatin, reference compound]: the “final concentration at which fungal growth was completely inhibited” value was 1.5 µg/mL in data set [4]; 1.5 µg/mL in [5]; 1.5 µg/mL in data set [6] (Asperigillus, 24 hours at 30°, OD 600 nm). Also, in data set [14], the “toxicity compared with the compound of the invention tested” value is listed as “significantly higher toxicity than the compound of the invention tested”.

On to `N=C(N)c1ccc(OCCCCCOc2ccc(C(=N)N)cc2)cc1` [pentamidine, reference compound], for which the concentration for half-maximal inhibition (IC50) in [13] turned out to be 2 µg/mL (≈ 5.87 µM).
